Here are results for 16 compounds from article PMC12136037, “Type II kinase inhibitors that target Parkinson’s disease–associated LRRK2” (Science Advances, 2025).

Molecules are shown by their SMILES.

Common to all, as to experiment: DSF 100 kinase selectivity screen;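 note: compound tested at 20 µM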
Common to all, as to type: binding

Assay [1] concerns the target T1, ~100 representative kinases (Homo sapiens, UniProt P29317).
T1 construct: Recombinant protein kinase domains with a concentration of 2 μM
The following applies: Protein EPHA2; average of three replicates. The method in brief:
(§1)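 Each kinase domain, at 2 μM, is mixed with 20 μM test compound and SYPRO Orange in Hepes (20 mM, pH 7.5) with 500 mM NaCl. Temperature is then raised at 3°C/min and fluorescence-monitored unfolding yields the melting temperature change, ΔTm in degrees Celsius.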

For assay [2], the target named is T2, ~100 representative kinases (Homo sapiens, UniProt Q13153).
T2 construct: Recombinant protein kinase domains with a concentration of 2 μM
T2 sequence (Q13153 whole entry, the tested form may be a part): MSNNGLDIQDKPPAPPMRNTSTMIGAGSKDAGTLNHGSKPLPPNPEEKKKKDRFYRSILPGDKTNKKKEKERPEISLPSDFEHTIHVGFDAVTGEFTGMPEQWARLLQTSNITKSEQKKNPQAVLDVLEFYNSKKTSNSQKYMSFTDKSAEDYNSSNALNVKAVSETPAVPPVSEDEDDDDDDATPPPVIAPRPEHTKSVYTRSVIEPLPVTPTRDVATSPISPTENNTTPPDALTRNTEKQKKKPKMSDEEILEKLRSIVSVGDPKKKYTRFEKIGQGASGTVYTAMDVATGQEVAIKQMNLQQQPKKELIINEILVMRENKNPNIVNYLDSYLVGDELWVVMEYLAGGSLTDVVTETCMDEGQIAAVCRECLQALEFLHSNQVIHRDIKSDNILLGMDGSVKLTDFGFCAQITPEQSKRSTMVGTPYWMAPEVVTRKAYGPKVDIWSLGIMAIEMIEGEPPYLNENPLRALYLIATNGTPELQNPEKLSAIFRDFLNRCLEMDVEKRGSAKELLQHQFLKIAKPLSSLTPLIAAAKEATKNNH
The following applies: protein PAK1; average of three replicates. Summed up: as §1

Assay [3] deals with T3, ~100 representative kinases (Homo sapiens, UniProt O96013).
T3 construct: Recombinant protein kinase domains with a concentration of 2 μM
T3 sequence (O96013 whole entry, the tested form may be a part): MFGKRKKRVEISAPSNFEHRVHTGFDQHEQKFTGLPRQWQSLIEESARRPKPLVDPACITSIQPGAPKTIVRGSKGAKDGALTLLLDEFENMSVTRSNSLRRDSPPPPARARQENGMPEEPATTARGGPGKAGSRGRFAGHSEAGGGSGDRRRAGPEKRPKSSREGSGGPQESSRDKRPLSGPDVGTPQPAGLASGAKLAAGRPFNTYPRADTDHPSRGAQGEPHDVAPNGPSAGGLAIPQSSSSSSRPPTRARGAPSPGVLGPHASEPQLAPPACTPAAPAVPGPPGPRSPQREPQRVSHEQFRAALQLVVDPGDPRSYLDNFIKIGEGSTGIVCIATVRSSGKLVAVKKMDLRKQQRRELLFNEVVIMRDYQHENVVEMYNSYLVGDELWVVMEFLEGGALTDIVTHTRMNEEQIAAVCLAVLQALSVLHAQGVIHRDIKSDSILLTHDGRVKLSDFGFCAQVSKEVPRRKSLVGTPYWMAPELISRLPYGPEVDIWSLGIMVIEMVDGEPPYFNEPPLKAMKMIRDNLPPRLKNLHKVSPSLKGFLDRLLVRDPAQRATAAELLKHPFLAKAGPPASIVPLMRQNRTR
The following applies: protein PAK4; average of three replicates. Summed up:
as §1

In assay [4] the target is T4, ~100 representative kinases (Homo sapiens, UniProt Q96NX5).
T4 construct: Recombinant protein kinase domains with a concentration of 2 μM
T4 sequence (Q96NX5 whole entry, the tested form may be a part): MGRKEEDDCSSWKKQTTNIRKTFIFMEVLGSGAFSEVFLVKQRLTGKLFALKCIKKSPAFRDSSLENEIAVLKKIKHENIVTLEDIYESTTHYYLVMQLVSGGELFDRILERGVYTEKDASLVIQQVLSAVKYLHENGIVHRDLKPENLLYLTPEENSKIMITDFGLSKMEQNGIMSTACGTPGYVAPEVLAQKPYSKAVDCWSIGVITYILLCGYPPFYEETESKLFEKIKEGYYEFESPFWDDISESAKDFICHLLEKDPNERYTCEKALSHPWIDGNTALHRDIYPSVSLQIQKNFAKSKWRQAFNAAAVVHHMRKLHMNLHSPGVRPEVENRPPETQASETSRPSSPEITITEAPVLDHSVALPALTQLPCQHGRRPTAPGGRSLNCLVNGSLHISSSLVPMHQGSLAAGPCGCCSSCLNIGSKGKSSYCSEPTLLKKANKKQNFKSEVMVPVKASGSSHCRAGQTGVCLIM
The following applies: Protein CAMK1G; average of three replicates. Summed up: as §1

Assay [5] deals with T5, ~100 representative kinases (Homo sapiens, UniProt O00444).
T5 construct: Recombinant protein kinase domains with a concentration of 2 μM
T5 sequence (O00444 1-970): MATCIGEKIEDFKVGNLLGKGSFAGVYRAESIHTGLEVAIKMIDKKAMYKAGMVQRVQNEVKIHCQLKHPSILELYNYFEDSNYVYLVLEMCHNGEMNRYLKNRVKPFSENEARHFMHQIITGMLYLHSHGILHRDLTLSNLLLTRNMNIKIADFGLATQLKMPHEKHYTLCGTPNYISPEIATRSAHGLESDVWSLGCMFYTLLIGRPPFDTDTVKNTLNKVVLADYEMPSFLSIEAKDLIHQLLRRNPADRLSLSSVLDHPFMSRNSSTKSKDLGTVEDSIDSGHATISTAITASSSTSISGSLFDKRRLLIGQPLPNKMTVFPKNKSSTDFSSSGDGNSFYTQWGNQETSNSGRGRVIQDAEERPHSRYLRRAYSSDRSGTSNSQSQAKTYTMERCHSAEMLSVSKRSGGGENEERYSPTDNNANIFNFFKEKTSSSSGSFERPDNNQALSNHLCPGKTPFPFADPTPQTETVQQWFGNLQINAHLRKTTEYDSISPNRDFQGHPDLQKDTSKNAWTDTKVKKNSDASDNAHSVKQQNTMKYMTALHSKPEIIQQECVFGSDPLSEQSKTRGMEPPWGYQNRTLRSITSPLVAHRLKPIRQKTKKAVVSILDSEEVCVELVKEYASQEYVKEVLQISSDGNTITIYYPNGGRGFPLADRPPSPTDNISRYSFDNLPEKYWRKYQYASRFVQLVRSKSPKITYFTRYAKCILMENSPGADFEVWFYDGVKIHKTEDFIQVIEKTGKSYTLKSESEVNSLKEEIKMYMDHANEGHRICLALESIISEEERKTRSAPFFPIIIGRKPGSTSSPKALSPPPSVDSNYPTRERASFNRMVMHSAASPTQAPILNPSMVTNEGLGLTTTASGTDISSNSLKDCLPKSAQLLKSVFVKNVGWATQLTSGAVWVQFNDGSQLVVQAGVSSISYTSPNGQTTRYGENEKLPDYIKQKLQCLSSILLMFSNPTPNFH
Particulars: protein PLK4; average of three replicates. The method in brief: as §1

Assay [6] concerns the target T6, ~100 representative kinases (Homo sapiens, UniProt O14976).
T6 construct: Recombinant protein kinase domains with a concentration of 2 μM
T6 sequence (O14976 1-1311): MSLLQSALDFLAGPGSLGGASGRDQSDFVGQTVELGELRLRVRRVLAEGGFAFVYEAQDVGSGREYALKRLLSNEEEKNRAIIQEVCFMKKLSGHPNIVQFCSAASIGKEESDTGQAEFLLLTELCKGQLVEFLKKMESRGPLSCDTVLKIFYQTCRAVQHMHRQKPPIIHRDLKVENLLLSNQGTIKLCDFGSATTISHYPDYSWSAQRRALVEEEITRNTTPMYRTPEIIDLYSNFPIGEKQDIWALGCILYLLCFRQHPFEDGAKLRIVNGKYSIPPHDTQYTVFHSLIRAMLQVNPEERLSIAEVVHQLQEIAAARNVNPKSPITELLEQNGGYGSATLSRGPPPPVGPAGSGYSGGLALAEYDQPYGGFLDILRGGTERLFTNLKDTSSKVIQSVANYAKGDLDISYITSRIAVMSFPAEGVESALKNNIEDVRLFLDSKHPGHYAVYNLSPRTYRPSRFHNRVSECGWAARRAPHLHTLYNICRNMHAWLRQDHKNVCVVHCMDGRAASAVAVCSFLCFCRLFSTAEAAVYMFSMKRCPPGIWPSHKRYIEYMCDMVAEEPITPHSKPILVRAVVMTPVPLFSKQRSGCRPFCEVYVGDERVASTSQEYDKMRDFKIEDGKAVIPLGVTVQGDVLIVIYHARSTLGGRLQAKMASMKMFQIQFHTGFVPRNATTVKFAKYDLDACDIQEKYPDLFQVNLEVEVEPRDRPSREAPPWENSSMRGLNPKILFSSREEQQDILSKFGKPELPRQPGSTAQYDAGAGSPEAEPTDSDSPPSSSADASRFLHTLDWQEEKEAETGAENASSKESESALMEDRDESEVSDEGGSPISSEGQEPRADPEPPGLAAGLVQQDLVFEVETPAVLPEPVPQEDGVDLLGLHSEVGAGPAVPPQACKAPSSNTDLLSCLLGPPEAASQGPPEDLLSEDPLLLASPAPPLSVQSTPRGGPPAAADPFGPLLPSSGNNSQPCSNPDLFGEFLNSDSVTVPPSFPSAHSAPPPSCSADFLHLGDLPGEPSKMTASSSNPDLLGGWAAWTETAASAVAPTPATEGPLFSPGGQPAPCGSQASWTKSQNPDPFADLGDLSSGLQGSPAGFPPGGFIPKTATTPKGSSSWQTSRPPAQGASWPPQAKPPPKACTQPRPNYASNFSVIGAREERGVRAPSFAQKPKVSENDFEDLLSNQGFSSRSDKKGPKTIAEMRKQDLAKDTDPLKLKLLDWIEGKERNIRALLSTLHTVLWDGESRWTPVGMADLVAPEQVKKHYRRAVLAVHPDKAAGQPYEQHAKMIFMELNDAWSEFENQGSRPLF
The following applies: protein GAK; average of three replicates. The method in brief:
as §1

T1 sequence (P29317 24-976): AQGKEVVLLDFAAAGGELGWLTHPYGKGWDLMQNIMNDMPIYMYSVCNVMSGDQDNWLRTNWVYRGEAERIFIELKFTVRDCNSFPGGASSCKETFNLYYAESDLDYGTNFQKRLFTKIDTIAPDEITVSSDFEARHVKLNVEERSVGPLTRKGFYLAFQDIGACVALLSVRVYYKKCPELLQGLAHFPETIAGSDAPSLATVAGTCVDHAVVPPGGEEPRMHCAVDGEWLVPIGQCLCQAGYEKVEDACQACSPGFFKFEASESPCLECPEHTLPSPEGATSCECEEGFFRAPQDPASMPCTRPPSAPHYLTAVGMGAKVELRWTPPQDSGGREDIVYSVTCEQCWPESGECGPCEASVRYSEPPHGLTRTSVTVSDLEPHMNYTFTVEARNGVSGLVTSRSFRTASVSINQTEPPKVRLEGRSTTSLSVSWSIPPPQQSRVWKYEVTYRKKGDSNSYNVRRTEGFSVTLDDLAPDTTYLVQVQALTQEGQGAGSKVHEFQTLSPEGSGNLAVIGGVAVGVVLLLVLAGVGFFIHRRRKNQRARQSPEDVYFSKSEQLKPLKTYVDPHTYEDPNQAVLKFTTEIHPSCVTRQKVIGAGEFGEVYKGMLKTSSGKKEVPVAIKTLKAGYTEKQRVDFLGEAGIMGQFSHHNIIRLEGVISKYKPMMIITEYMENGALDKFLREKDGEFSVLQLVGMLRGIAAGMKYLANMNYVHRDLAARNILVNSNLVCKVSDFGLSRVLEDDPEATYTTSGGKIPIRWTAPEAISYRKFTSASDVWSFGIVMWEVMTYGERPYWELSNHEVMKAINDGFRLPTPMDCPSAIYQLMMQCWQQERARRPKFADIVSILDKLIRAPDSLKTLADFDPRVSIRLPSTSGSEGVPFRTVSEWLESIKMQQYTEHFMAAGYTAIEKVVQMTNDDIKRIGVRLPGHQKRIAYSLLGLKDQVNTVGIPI

For the compound `Cc1ccc(C(=O)Nc2ccc(CN3CCN(C)CC3)c(C(F)(F)F)c2)cc1C#Cc1c[nH]c2ncnc(N3CCOCC3)c12` [Compound 1], the dTm in assay [1] came out at 3.44 K; in assay [2], 1.52 K; in assay [3] it was 0.31 K; in assay [4] it was 2.40 K; in assay [5], 6.48 K; in assay [6], 3.03 K.
`O=C(Nc1ccc(F)cc1)C1(C(=O)Nc2cccc(-c3c[nH]c4ncnc(N5CCOCC5)c34)c2)CC1` [Compound 2]: the dTm in assay [1] was determined as 6.37 K; in assay [2] it was 2.06 K; in assay [3] it was 0.12 K; in assay [4], 1.77 K; in assay [5], 8.51 K; in assay [6], 0.23 K.
Regarding `O=C(Nc1cccc(-c2c[nH]c3ncnc(N4CCOCC4)c23)c1)c1cccn(-c2ccc(F)cc2)c1=O` [Compound 4], the dTm in assay [1] is 6.09 K; in assay [2], 4.33 K; in assay [3], -0.78 K; in assay [4] it was 1.22 K; in assay [5], 8.52 K; in assay [6], 0.0652 K.
`Cc1cc(NC(=O)C2(C(=O)Nc3ccc(F)cc3)CC2)cc(-c2c[nH]c3ncnc(N4CCOCC4)c23)c1` [Compound 6]: the dTm in assay [1] was 3.21 K; in assay [2], 1.55 K; in assay [3], 0.99 K; in assay [4], 3.07 K; in assay [5] it was 7.27 K; in assay [6], 0.83 K.
Take `O=C(Nc1cccc(-c2c[nH]c3ncnc(N4CCOCC4)c23)c1)C1(C(=O)Nc2cccc3c2CCC3)CC1` [Compound 11]: the dTm was 1.56 K in assay [1]; 3.04 K in assay [2]; 0.55 K in assay [3]; 2.69 K in assay [4]; 7.44 K in assay [5]; -0.59 K in assay [6].
With `O=C(Nc1ccccc1)C1(C(=O)Nc2cccc(-c3c[nH]c4ncnc(N5CCOCC5)c34)c2)CC1` [Compound 12], the dTm in assay [1] is recorded as 5.20 K; in assay [2], 1.90 K; in assay [3] it was -0.15 K; in assay [4], 1.89 K; in assay [5] it was 6.79 K; in assay [6], 1.44 K.
Consider `O=C(Nc1ccc(Cl)cc1)C1(C(=O)Nc2cccc(-c3c[nH]c4ncnc(N5CCOCC5)c34)c2)CC1` [Compound 13], for which the dTm in assay [1] is recorded as 8.00 K; in assay [2], 3.82 K; in assay [3], 1.17 K; in assay [4] it was 3.50 K; in assay [5], 9.01 K; in assay [6], 1.60 K.
Turning to `Cc1ccc(NC(=O)C2(C(=O)Nc3cccc(-c4c[nH]c5ncnc(N6CCOCC6)c45)c3)CC2)cc1` [Compound 14], the dTm is given as 7.05 K in assay [1]; 2.44 K in assay [2]; -0.55 K in assay [3]; 1.22 K in assay [4]; 7.55 K in assay [5]; 0.81 K in assay [6].
Take `CCc1ccc(NC(=O)C2(C(=O)Nc3cccc(-c4c[nH]c5ncnc(N6CCOCC6)c45)c3)CC2)cc1` [Compound 15]: the dTm in assay [1] is 4.88 K; in assay [2], 1.40 K; in assay [3] it was -0.0471 K; in assay [4] it was 1.75 K; in assay [5], 9.77 K; in assay [6], 0.09 K.
For the compound `COc1ccc(NC(=O)C2(C(=O)Nc3cccc(-c4c[nH]c5ncnc(N6CCOCC6)c45)c3)CC2)cc1` [Compound 16], the dTm in assay [1] is 1.72 K; in assay [2], 0.47 K; in assay [3] it was -0.80 K; in assay [4], -0.76 K; in assay [5] it was 4.53 K; in assay [6] it was 0.0654 K.
Consider `O=C(Nc1cccc(-c2c[nH]c3ncnc(N4CCOCC4)c23)c1)C1(C(=O)Nc2ccc(F)c(F)c2)CC1` [Compound 17], for which the dTm in assay [1] came out at 4.47 K; in assay [2], 3.52 K; in assay [3], 0.06 K; in assay [4] it was 2.10 K; in assay [5], 9.62 K; in assay [6] it was 1.14 K.
Take `O=C(Nc1cccc(-c2c[nH]c3ncnc(N4CCOCC4)c23)c1)C1(C(=O)Nc2ccc(F)c(Cl)c2)CC1` [Compound 18]: the dTm in assay [1] amounted to 4.93 K; in assay [2], 5.39 K; in assay [3], 0.49 K; in assay [4], 3.39 K; in assay [5] it was 7.28 K; in assay [6], 1.28 K.
`COc1cc2c(Oc3ccc(NC(=O)C4(C(=O)Nc5ccc(F)cc5)CC4)cc3F)ccnc2cc1OCCCN1CCOCC1` [Foretinib, reference compound]: the dTm in assay [2] was 1.69 K; in assay [3] it was 0.34 K; in assay [4] it was 3.09 K; in assay [5] it was 16.61 K; in assay [6], 2.91 K.
As to `Cc1ccc(C(=O)Nc2ccc(CN3CCN(C)CC3)c(C(F)(F)F)c2)cc1C#Cc1cnc2cccnn12` [Ponatinib, reference compound], the values for the dTm in assay [1] and in assay [4] were 16.48 K and 1.16 K, respectively.
In the case of `CNC(=O)c1cc(Oc2ccc(NC(=O)Nc3cc(C(C)(C)C)nn3-c3ccc4ncccc4c3)c(F)c2)ccn1` [Rebastinib, reference compound], the dTm in assay [1] amounted to 10.76 K; in assay [2] it was 1.98 K; in assay [3] it was 4.23 K; in assay [5], 6.17 K; in assay [6], 4.99 K.
With `CN[C@@H]1C[C@H]2O[C@@](C)([C@@H]1OC)n1c3ccccc3c3c4c(c5c6ccccc6n2c5c31)C(=O)NC4` [Staurosporine], the results for the dTm in assay [2] and in assay [5] were 7.21 K and 19.68 K, respectively.
